Seven compounds from ChEMBL document CHEMBL5036359, “Repositioning Food and Drug Administration-Approved Drugs for Inhibiting Biliverdin IXβ Reductase B as a Novel Thrombocytopenia Therapeutic Target” (J Med Chem, 2022) can be followed below.

pKd: −log10 of the molar value.

For assay [1], the target named is T1, Flavin reductase (NADPH) (Homo sapiens) (UniProt P30043).
T1 sequence (whole entry): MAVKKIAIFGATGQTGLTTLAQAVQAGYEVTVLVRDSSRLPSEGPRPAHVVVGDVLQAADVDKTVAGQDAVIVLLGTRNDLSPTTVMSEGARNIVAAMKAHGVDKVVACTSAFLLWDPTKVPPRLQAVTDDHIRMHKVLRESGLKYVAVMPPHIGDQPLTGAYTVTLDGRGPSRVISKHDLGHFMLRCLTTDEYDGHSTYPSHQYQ
Briefly: Binding affinity to human N-terminal His6-tagged and thrombin cleavage fused BLVRB expressed in Escherichia coli BL21 (DE3) assessed as change in enthalpy by isothermal titration calorimetry.

Assay [2] addresses T1, Flavin reductase (NADPH) (Homo sapiens). Nature of the assay: Binding affinity to human N-terminal His6-tagged and thrombin cleavage fused BLVRB expressed in Escherichia coli BL21 (DE3) assessed as change in entropy by isothermal titration calorimetry.
The target is the same in assay [3]. Briefly: Binding affinity to human N-terminal His6-tagged and thrombin cleavage fused BLVRB expressed in Escherichia coli BL21 (DE3) assessed as change in gibbs free energy by isothermal titration calorimetry.
The target of another assay is T2, Flavin reductase (NADPH) (Homo sapiens, UniProt P30043).
T2 sequence (P30043 whole entry): T1 sequence (whole entry)
Nature of the assay: Binding affinity to human N-terminal His6-tagged and thrombin cleavage fused BLVRB expressed in Escherichia coli BL21 (DE3) assessed as dissociation constant by isothermal titration calorimetry.

With `Cc1nc(-c2ccc(OCC(C)C)c(C#N)c2)sc1C(=O)O` [FEBUXOSTAT], in assay [1], the deltaH is -5.75 kcal/mol. In addition, the TdeltaS in assay [2] was found to be 2.14 kcal/mol. Also, the deltaG in assay [3] is -7.9 kcal/mol. The pKd on Flavin reductase (NADPH) was 5.79.
On the same counts, the results for `O=C(O)c1ccc(-n2nc(-c3ccccc3O)nc2-c2ccccc2O)cc1` [DEFERASIROX] are -7.32 kcal/mol, 0.55 kcal/mol, -7.87 kcal/mol and 5.77.
Take `O=C(O)c1cc(/N=N/c2ccc(S(=O)(=O)Nc3ccccn3)cc2)ccc1O`: in assay [1], the deltaH is -9.43 kcal/mol. Besides, the TdeltaS in assay [2] is -0.76 kcal/mol. In addition, the deltaG in assay [3] is -8.67 kcal/mol.
On the same counts, the results for `CC1(C)CCC(C)(C)c2cc(NC(=O)c3ccc(C(=O)O)cc3)ccc21` are -4.49 kcal/mol, 3.5 kcal/mol and -7.99 kcal/mol.
As for `O=C(O)c1c(Cl)c(Cl)c(Cl)c(Cl)c1-c1c2cc(Br)c(=O)c(Br)c-2oc2c(Br)c(O)c(Br)cc12`, in assay [1], the deltaH is -3.88 kcal/mol. Also, the TdeltaS in assay [2] stood at 4.12 kcal/mol. Moreover, the deltaG in assay [3] was -8 kcal/mol. In addition, the pKd on Flavin reductase (NADPH) is 5.87.
Taken in the same sequence, the figures for `O=C1OC2(c3ccccc31)c1cc(I)c(O)c(I)c1Oc1c2cc(I)c(O)c1I` [ERYTHROSINE] were -6.38 kcal/mol, 2.91 kcal/mol, -9.28 kcal/mol and 6.80.
Turning to `O=C(O)c1cccc(-c2noc(-c3ccccc3F)n2)c1`, in assay [1], the deltaH is -11 kcal/mol. In addition, in assay [2], the TdeltaS was -1.83 kcal/mol. Moreover, the deltaG in assay [3] is -9.13 kcal/mol. The pKd on Flavin reductase (NADPH) is 6.70.
